Molecules are shown by their SMILES. Converted amounts (≈) assume the structure as drawn.

As usually defined, the MIC is the lowest concentration found to suppress growth.

The assay deals with A. baumannii strain ATCC19606. Kind of assay: Minimum inhibitory concentration (MIC) determination, microbroth dilution (CLSI). In kind it is cell-based. To be noted: Acinetobacter baumannii; A. baumannii ATCC19606; CAMHB; read after 20 hours; >=80% growth inhibition; read-out: ATCC19606 MIC. Put shortly: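 CLSI broth microdilution in cation-adjusted Mueller Hinton broth with twofold compound dilutions and ~5×10^5 CFU/ml inoculum, incubated at 35±2 °C. MIC read after 20 h as lowest concentration inhibiting ≥80% of growth, by eye and OD 600 nm.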
For the compound `CCN1C(=O)[C@H](CCCCN)NC(=O)[C@H](CCCN)NCc2cccnc2Sc2c(C)cc(Br)cc2CNC(=O)[C@@H]1Cc1c[nH]c2ccccc12` [Example 84, (11S,14S,17S)-14-(4-Amino-butyl)-11-(3-amino-propyl)-23-bromo-16-ethyl-17-(1H-indol-3-ylmethyl)-25-methyl-2-thia-4,10,13,16,19-pentaaza-tricyclo[19.4.0.0*3,8*]pentacosa-1(25),3(8),4,6,21,23-hexaene-12,15,18-trione], the MIC came out at 0.12 µg/mL (≈ 0.154 µM). Consider `CN1C(=O)[C@H](CCCCN)NC(=O)[C@H](Cc2cncn2C)NCc2cccnc2Sc2c(Cl)cc(C(F)(F)F)cc2CNC(=O)[C@@H]1Cc1c[nH]c2ccccc12` [Example 85, (11S,14S,17S)-14-(4-Amino-butyl)-25-chloro-17-(1H-indol-3-ylmethyl)-16-methyl-11-(3-methyl-3H-imidazol-4-ylmethyl)-23-trifluoromethyl-2-thia-4,10,13,16,19-pentaaza-tricyclo[19.4.0.0*3,8*]pentacosa-1(25),3(8),4,6,21,23-hexaene-12,15,18-trione], for which the MIC was 0.5 µg/mL (≈ 0.617 µM). Next, `CN1C(=O)[C@H](CCCCN)NC(=O)[C@H](Cc2cccnc2)NCc2cccnc2Sc2c(Cl)cc(C(F)(F)F)cc2CNC(=O)[C@@H]1Cc1c[nH]c2ccccc12` [Example 86, (11S,14S,17S)-14-(4-Amino-butyl)-25-chloro-17-(1H-indol-3-ylmethyl)-16-methyl-11-pyridin-3-ylmethyl-23-trifluoromethyl-2-thia-4,10,13,16,19-pentaaza-tricyclo[19.4.0.0*3,8*]pentacosa-1(25),3(8),4,6,21,23-hexaene-12,15,18-trione]: 16 µg/mL (≈ 19.8 µM); `CN1C(=O)[C@H](CCCCN)NC(=O)[C@H](CCCN)NCc2cccnc2Sc2c(cc(-c3ccccc3)cc2C(F)(F)F)CNC(=O)[C@@H]1Cc1c[nH]c2ccccc12` [Example 87, (11S,14S,17S)-14-(4-Amino-butyl)-11-(3-amino-propyl)-17-(1H-indol-3-ylmethyl)-16-methyl-23-phenyl-25-trifluoromethyl-2-thia-4,10,13,16,19-pentaaza-tricyclo[19.4.0.0*3,8*]pentacosa-1(25),3,5,7,21,23-hexaene-12,15,18-trione]: 8 µg/mL (≈ 9.82 µM). As for `CN1C(=O)[C@H](CCCCN)NC(=O)[C@H](CCCN)NCc2cccnc2Sc2c(cc(Br)cc2C(F)(F)F)CNC(=O)[C@@H]1Cc1c[nH]c2ccccc12` [Example 88, (11S,14S,17S)-14-(4-Amino-butyl)-11-(3-amino-propyl)-23-bromo-17-(1H-indol-3-ylmethyl)-16-methyl-25-trifluoromethyl-2-thia-4,10,13,16,19-pentaaza-tricyclo[19.4.0.0*3,8*]pentacosa-1(25),3,5,7,21,23-hexaene-12,15,18-trione], the MIC worked out at 0.25 µg/mL (≈ 0.306 µM).

As to `CN1C(=O)[C@H](CCCCN)NC(=O)[C@H](CCCN)NCc2cccnc2Sc2c(Cl)cc(Br)cc2CNC(=O)[C@@H]1Cc1c[nH]c2ccccc12` [Example 89, (11S,14S,17S)-14-(4-Amino-butyl)-11-(3-amino-propyl)-23-bromo-25-chloro-17-(1H-indol-3-ylmethyl)-16-methyl-2-thia-4,10,13,16,19-pentaaza-tricyclo[19.4.0.0*3,8*]pentacosa-1(25),3,5,7,21,23-hexaene-12,15,18-trione], the MIC came out at 0.12 µg/mL (≈ 0.153 µM). As to `CN1C(=O)[C@H](CCCCN)NC(=O)[C@H](CCCN)NCc2cccnc2Sc2c(Cl)ccc(Br)c2CNC(=O)[C@@H]1Cc1c[nH]c2ccccc12` [Example 90, (11S,14S,17S)-14-(4-Amino-butyl)-11-(3-amino-propyl)-22-bromo-25-chloro-17-(1H-indol-3-ylmethyl)-16-methyl-2-thia-4,10,13,16,19-pentaaza-tricyclo[19.4.0.0*3,8*]pentacosa-1(25),3,5,7,21,23-hexaene-12,15,18-trione], the MIC worked out at 0.25 µg/mL (≈ 0.319 µM).

Take `CN1C(=O)[C@H](CCCCN)NC(=O)[C@H](CCCN)NCc2cccnc2Sc2c(cc(C(F)(F)F)cc2C(F)(F)F)CNC(=O)[C@@H]1Cc1c[nH]c2ccccc12` [Example 91, (11S,14S,17S)-14-(4-Amino-butyl)-11-(3-amino-propyl)-17-(1H-indol-3-ylmethyl)-16-methyl-23,25-bis-trifluoromethyl-2-thia-4,10,13,16,19-pentaaza-tricyclo[19.4.0.0*3,8*]pentacosa-1(25),3,5,7,21,23-hexaene-12,15,18-trione]: the MIC was determined as 0.5 µg/mL (≈ 0.62 µM). In the case of `CN1C(=O)[C@H](CCCCN)NC(=O)[C@H](CCCN)NCc2cccnc2Sc2c(Cl)cc(N3CCOCC3)cc2CNC(=O)[C@@H]1Cc1c[nH]c2ccccc12` [Example 92, (11S,14S,17S)-14-(4-Amino-butyl)-11-(3-amino-propyl)-25-chloro-17-(1H-indol-3-ylmethyl)-16-methyl-23-morpholin-4-yl-2-thia-4,10,13,16,19-pentaaza-tricyclo[19.4.0.0*3,8*]pentacosa-1(25),3,5,7,21,23-hexaene-12,15,18-trione], the MIC came out at 0.5 µg/mL (≈ 0.633 µM). With `CN1C(=O)[C@H](CCCCN)NC(=O)CNCc2cccnc2Sc2c(Cl)cc(Cl)cc2CNC(=O)[C@@H]1Cc1c[nH]c2ccccc12` [Example 93, (14S,17S)-14-(4-Amino-butyl)-23,25-dichloro-17-(1H-indol-3-ylmethyl)-16-methyl-2-thia-4,10,13,16,19-pentaaza-tricyclo[19.4.0.0*3,8*]pentacosa-1(25),3,5,7,21,23-hexaene-12,15,18-trione], the MIC was 16 µg/mL (≈ 23.4 µM). With `C[C@@H]1NCc2cccnc2Sc2c(Cl)cc(Cl)cc2CNC(=O)[C@H](Cc2c[nH]c3ccccc23)N(C)C(=O)[C@H](CCCCN)NC1=O` [Example 94, (11S,14S,17S)-14-(4-Amino-butyl)-23,25-dichloro-17-(1H-indol-3-ylmethyl)-11,16-dimethyl-2-thia-4,10,13,16,19-pentaaza-tricyclo[19.4.0.0*3,8*]pentacosa-1(25),3,5,7,21,23-hexaene-12,15,18-trione], the MIC is 1 µg/mL (≈ 1.44 µM). As to `CC(C)[C@@H]1NCc2cccnc2Sc2c(Cl)cc(Cl)cc2CNC(=O)[C@H](Cc2c[nH]c3ccccc23)N(C)C(=O)[C@H](CCCCN)NC1=O` [Example 95, (11S,14S,17S)-14-(4-Amino-butyl)-23,25-dichloro-17-(1H-indol-3-ylmethyl)-11-isopropyl-16-methyl-2-thia-4,10,13,16,19-pentaaza-tricyclo[19.4.0.0*3,8*]pentacosa-1(25),3,5,7,21,23-hexaene-12,15,18-trione], the minimum inhibitory concentration (MIC) is 8 µg/mL (≈ 11 µM). For `CN1C(=O)[C@H](CCCCN)NC(=O)[C@H](CO)NCc2cccnc2Sc2c(Cl)cc(Cl)cc2CNC(=O)[C@@H]1Cc1c[nH]c2ccccc12` [Example 96, (11S,14S,17S)-14-(4-Amino-butyl)-23,25-dichloro-11-hydroxymethyl-17-(1H-indol-3-ylmethyl)-16-methyl-2-thia-4,10,13,16,19-pentaaza-tricyclo[19.4.0.0*3,8*]pentacosa-1(25),3,5,7,21,23-hexaene-12,15,18-trione], the MIC was determined as 4 µg/mL (≈ 5.61 µM). In the case of `CN1C(=O)[C@H](CCCCN)NC(=O)[C@H](CCCN)NCc2nccnc2Sc2c(Cl)cc(C(F)(F)F)cc2CNC(=O)[C@@H]1Cc1c[nH]c2ccccc12` [Example 97, (11S,14S,17S)-14-(4-Amino-butyl)-11-(3-amino-propyl)-25-chloro-17-(1H-indol-3-ylmethyl)-16-methyl-23-trifluoromethyl-2-thia-4,7,10,13,16,19-hexaaza-tricyclo[19.4.0.0*3,8*]pentacosa-1(21),3,5,7,22,24-hexaene-12,15,18-trione], the MIC was 0.12 µg/mL (≈ 0.155 µM).

Regarding `CN1C(=O)[C@H](CCCCN)NC(=O)[C@H](CCCN)NCc2nccnc2Sc2c(Cl)ccc(C(F)(F)F)c2CNC(=O)[C@@H]1Cc1c[nH]c2ccccc12` [Example 98, (11S,14S,17S)-14-(4-Amino-butyl)-11-(3-amino-propyl)-25-chloro-17-(1H-indol-3-ylmethyl)-16-methyl-22-trifluoromethyl-2-thia-4,7,10,13,16,19-hexaaza-tricyclo[19.4.0.0*3,8*]pentacosa-1(21),3,5,7,22,24-hexaene-12,15,18-trione], the MIC came out at 0.12 µg/mL (≈ 0.155 µM). To `CN1C(=O)[C@H](CCCCN)NC(=O)[C@H](CCCN)NCc2cccnc2Sc2c(Cl)cc(-c3cccnc3)cc2CNC(=O)[C@@H]1Cc1c[nH]c2ccccc12` [Example 99, (11S,14S,17S)-14-(4-Amino-butyl)-11-(3-amino-propyl)-25-chloro-17-(1H-indol-3-ylmethyl)-16-methyl-23-pyridin-3-yl-2-thia-4,10,13,16,19-pentaaza-tricyclo[19.4.0.0*3,8*]pentacosa-1(25),3,5,7,21,23-hexaene-12,15,18-trione] belongs 4 µg/mL (≈ 5.11 µM); to `CN1C(=O)[C@H](CCCCN)NC(=O)[C@H](CCCN)NCc2cccnc2Sc2c(Cl)cc(-c3ccncc3)cc2CNC(=O)[C@@H]1Cc1c[nH]c2ccccc12` [Example 100, (11S,14S,17S)-14-(4-Amino-butyl)-11-(3-amino-propyl)-25-chloro-17-(1H-indol-3-ylmethyl)-16-methyl-23-pyridin-4-yl-2-thia-4,10,13,16,19-pentaaza-tricyclo[19.4.0.0*3,8*]pentacosa-1(25),3,5,7,21,23-hexaene-12,15,18-trione], 2 µg/mL (≈ 2.56 µM); to `CC(C)C[C@@H]1NCc2cccnc2Sc2c(Cl)cc(Cl)cc2CNC(=O)[C@H](Cc2c[nH]c3ccccc23)N(C)C(=O)[C@H](CCCCN)NC1=O` [Example 101, (11S,14S,17S)-14-(4-Amino-butyl)-23,25-dichloro-17-(1H-indol-3-ylmethyl)-11-isobutyl-16-methyl-2-thia-4,10,13,16,19-pentaaza-tricyclo[19.4.0.0*3,8*]pentacosa-1(25),3,5,7,21,23-hexaene-12,15,18-trione], 32 µg/mL (≈ 43.3 µM).

The values above are taken from patent US10030047B2 (Hoffmann-La Roche Inc., priority 2015, dated 2018).
